IC50, TI and Apoptotic activity data for 16 compounds are collected here from ChEMBL document CHEMBL1131779, “Synthesis and evaluation of potential complement inhibitory semisynthetic analogs of oleanolic acid” (Bioorg Med Chem Lett, 1999).

For test [1], the system named is SK-MEL. In words: Compound was tested for its cytotoxicity against human malignant melanoma cell line SK-MEL. Type of test: functional, cell-based.
The species entered for test [2] is Homo sapiens. The test is described as follows: The compound was tested in vitro for its inhibition of the classical pathway activation of human complement. Type of test: functional.
Test [3] is described as follows: In vitro therapeutic index was determined. (Therapeutic index = IC50 cytotoxicity/IC50 complement inhibition). The test is classed as functional.
For test [4], the system named is SK-MEL. In words: Compound was tested for its cytotoxicity against human malignant melanoma cell line SK-MEL; NA = Not active. Type of test: functional, cell-based.
Test [5] is described as follows: The compound was tested for its apoptotic activity; no DNA migration observed. Type of test: functional.
For test [6], the species on record is Homo sapiens. In words: The compound was tested in vitro for its inhibition of the classical pathway activation of human complement; Not active. Type of test: functional.
The nature of test [7]: The compound was tested for its apoptotic activity; No DNA migration observed. The test is classed as functional.

Consider `CC(C)(CC(=O)O)CC(=O)O[C@H]1CC[C@@]2(C)C(CC[C@]3(C)C2CC=C2[C@@H]4CC(C)(C)CC[C@]4(C(=O)O)CC[C@]23C)C1(C)C` (some centres undefined), for which the figures for the 50% inhibitory concentration (IC50) in the test with SK-MEL [1] and in the test filed under Homo sapiens [2] were 86 µM and 103 µM, respectively. Moreover, the TI in test [3] worked out at 0.83.

For `CC(=O)O[C@H]1CC[C@]2(C)[C@H]3CC=C4[C@@H]5CC(C)(C)CC[C@]5(C(=O)O)CC[C@@]4(C)[C@]3(C)CC[C@H]2C1(C)C` [ACETYL OLEANOLIC ACID], the half-maximal inhibitory concentration (IC50) entry in the test on SK-MEL [4] and in the test listed under Homo sapiens [6] was “Not Active” throughout. Besides, in test [5], the Apoptotic activity result was “no DNA migration observed”.

As for `CC(=O)O[C@H]1CC[C@@]2(C)C(CC[C@]3(C)C2C(=O)C=C2[C@@H]4CC(C)(C)CC[C@]4(C(=O)O)CC[C@]23C)C1(C)C` (some centres undefined), the IC50 entry in the test with SK-MEL [4] and in the test filed under Homo sapiens [6] was “Not Active” each time. Moreover, the Apoptotic activity entry in test [7] was “No DNA migration observed”.

`CC1(C)CC[C@]2(C(=O)O)CC[C@]3(C)C(=CC[C@@H]4[C@@]5(C)CC[C@H](O)C(C)(C)[C@@H]5CC[C@]43C)[C@@H]2C1` [OLEANOLIC_ACID]: the half-inhibitory concentration (IC50) – broadly, the concentration that gives 50% inhibition – came to 112 µM with SK-MEL [1] and 72.3 µM in the test filed under Homo sapiens [2]. Besides, the Apoptotic activity result in test [5] is “no DNA migration observed”. This compound also came in with a TI in test [3] of 1.55.

For `CC1(C)CC[C@]2(C(=O)NCCCCC(=O)O)CC[C@]3(C)C(=CCC4[C@@]5(C)CC[C@H](O)C(C)(C)C5CC[C@]43C)[C@@H]2C1` (some centres undefined), the concentration for half-maximal inhibition (IC50) with SK-MEL [1] is 127 µM; in the test listed under Homo sapiens [2], 31.8 µM. Also, the TI in test [3] came out at 3.99.

With `CC1(C)CC[C@]2(C(=O)NCCCCCCCCCCC(=O)O)CC[C@]3(C)C(=CCC4[C@@]5(C)CC[C@H](O)C(C)(C)C5CC[C@]43C)[C@@H]2C1` (some centres undefined), the IC50 entry with SK-MEL [4] and in the test listed under Homo sapiens [6] was “Not Active” in each case. For the same compound, the Apoptotic activity entry in test [7] is “No DNA migration observed”.

For the compound `CC1(C)CC[C@]2(C(=O)O)CC[C@]3(C)C(=CC(=O)C4[C@@]5(C)CC[C@H](O)C(C)(C)C5CC[C@]43C)[C@@H]2C1` (some centres undefined), the values for the IC50 in the test with SK-MEL [1] and in the test filed under Homo sapiens [2] were 131 µM and 234 µM, respectively. The TI in test [3] was 0.56.

In the case of `CC1(C)CC[C@]2(C(=O)O)CC[C@]3(C)C(=CC[C@@H]4[C@@]5(C)CCC(=O)C(C)(C)[C@@H]5CC[C@]43C)[C@@H]2C1` [OLEANONIC ACID], the figures for the half-inhibitory concentration (IC50) in the test with SK-MEL [1] and in the test listed under Homo sapiens [6] were 31 µM and “Not Active”, respectively.

Take `CC1(C)CC[C@]2(C(N)=O)CC[C@]3(C)C(=CCC4[C@@]5(C)CC[C@H](O)C(C)(C)C5CC[C@]43C)[C@@H]2C1` (some centres undefined): the IC50 result with SK-MEL [4] and in the test filed under Homo sapiens [6] was “Not Active” each time. Besides, the Apoptotic activity result in test [7] is “No DNA migration observed”.

For `CC(=O)O[C@H]1CC[C@@]2(C)C(CC[C@]3(C)C2CC=C2[C@@H]4CC(C)(C)CC[C@]4(C(N)=O)CC[C@]23C)C1(C)C` (some centres undefined), the IC50 with SK-MEL [1] was 70 µM; in the test listed under Homo sapiens [6], “Not Active”. The Apoptotic activity result in test [7] is “No DNA migration observed”.

On to `C=C(C)[C@@H]1CC[C@]2(C(=O)O)CC[C@]3(C)[C@H](CC[C@@H]4[C@@]5(C)CC[C@H](O)C(C)(C)[C@@H]5CC[C@]43C)[C@@H]12` [BETULINIC ACID], for which the results for the half-inhibitory concentration (IC50) in the test on SK-MEL [1] and in the test filed under Homo sapiens [2] were 35 µM and 577 µM, respectively. This compound had a TI in test [3] of 0.06.

Consider `CC1(C)CC[C@]2(C(=O)O)CC[C@]3(C)C(=CCC4[C@@]5(C)CC[C@H](OC(=O)COCC(=O)O)C(C)(C)C5CC[C@]43C)[C@@H]2C1` (some centres undefined), for which the IC50 came to 93 µM in the test on SK-MEL [1] and 31.4 µM in the test filed under Homo sapiens [2]. In test [3], this compound had a TI of 2.96.

For `CC1(C)CC[C@]2(C(=O)O)CC[C@]3(C)C(=CCC4[C@@]5(C)CC[C@H](OC(=O)CC(C)(C)C(=O)O)C(C)(C)C5CC[C@]43C)[C@@H]2C1` (some centres undefined), the results for the IC50 in the test with SK-MEL [1] and in the test listed under Homo sapiens [2] were 77 µM and 108 µM, respectively. The same compound registered a TI in test [3] of 0.71.

Regarding `CC1(C)CC[C@]2(C(=O)NCC(=O)O)CC[C@]3(C)C(=CC[C@@H]4[C@@]5(C)CC[C@H](O)C(C)(C)[C@@H]5CC[C@]43C)[C@@H]2C1`, the results for the IC50 with SK-MEL [1] and in the test filed under Homo sapiens [2] were 115 µM and 146 µM, respectively. The Apoptotic activity result in test [7] is “No DNA migration observed”. Further, the TI in test [3] was determined as 0.78.

In the case of `CC1(C)CC[C@]2(CO)CC[C@]3(C)C(=CCC4[C@@]5(C)CC[C@H](O)C(C)(C)C5CC[C@]43C)[C@@H]2C1` (some centres undefined), the results for the IC50 in the test with SK-MEL [1] and in the test listed under Homo sapiens [6] were 105 µM and “Not Active”, respectively. Further, in test [7], the Apoptotic activity result was “No DNA migration observed”.

`COC(=O)[C@]12CCC(C)(C)C[C@H]1C1=CC[C@@H]3[C@@]4(C)CC[C@H](O)C(C)(C)[C@@H]4CC[C@@]3(C)[C@]1(C)CC2` [METHYL OLEANOLATE]: the IC50 with SK-MEL [1] was 103 µM; in the test listed under Homo sapiens [6], “Not Active”. Moreover, the Apoptotic activity result in test [7] was “No DNA migration observed”.
